Laboratory results from patent US5440016A, “Peptides of the formula (KFmoc) ZZZ and their uses” (priority 1993, dated 1995).
≈ marks a conversion by molar mass, not a printed value. Like-named read-outs stand apart in the source and are kept apart here. Square brackets hold non-standard residues; d marks the D form. Peptide text beside a SMILES is read from it. * marks the point of attachment. Fmoc = O=C(OCC1c2ccccc2-c2ccccc21)*

Columns and labels:
[1] = system: Human red blood cells (RBCs); experiment: Hemolytic activity; type: cell-based
[2] = system: Escherichia coli ATCC 25922; conditions: for IC50 (μg/ml) against E. coli: Tables 22-23
Protocol: (§1) Escherichia coli ATCC 25922 and P. aeruginosa ATCC 27853 were used as Gram-negative (-) and Staphylococcus aureus ATCC 29213 as Gram-positive (+) bacteria. Bacteria were grown overnight at 37° C. in Mueller-Hinton (MH) broth. This culture was reinoculated and incubated at 37° C. to reach the exponential phase of bacteria growth, i.e., a final bacterial suspension containing 10^5 to 5×10^5 colony-forming units (CFU)/ml. The concentration of cells was established by plating 100 μl of different dilutions of the culture solution (e.g., 10^-2, 10^-3 and 10^-4) onto solid agar plates.
(§2) Following an overnight incubation at 37° C., the CFU thus formed were counted on each agar plate. In 96-well tissue culture plates, as control blanks, eight wells per plate contained only medium, while as a positive growth control, eight other wells contained medium plus cells.
(§3) The plates were incubated overnight at 37° C., and the optical density (OD) determined at 620 nm after different times of incubation.

[3] = system: Staphylococcus aureus ATCC 29213
Protocol: as §1, §2, §3

[4] = system: Streptococcus sanguis ATCC 10556; conditions: for IC50 (μg/ml) against S. sanguis: Tables 22-23
Protocol: Streptococcus sanguis ATCC 10556 (Gram-positive (+) bacteria present in tooth crevices) was grown overnight at 37° C. in Brain Heart Infusion (BHI) broth. This culture was reinoculated and incubated at 37° C. to reach the exponential phase of bacteria growth, i.e., a final bacterial suspension containing 10^5 to 5×10^5 colony-forming units (CFU)/ml. The concentration of cells was established by plating 100 μl of different dilutions of the culture solution (e.g., 10^-2, 10^-4) and 10^-4) onto solid agar plates. Following an overnight incubation at 37° C., the CFU thus formed were counted on each agar plate. In 96-well tissue culture plates, as control blanks, eight wells per plate contained only medium, while as a positive growth control, eight other wells contained medium plus cells. […] The plates were incubated overnight at 37° C., and the optical density (OD) determined at 620 nm after 20 to 24 hours incubation.

[5] = system: Candida albicans ATCC 10231; conditions: for IC50 (μg/ml) against C. albicans: Tables 22-23
P. aeruginosa ATCC 27853 = experiment: Antimicrobial assay, P. aeruginosa; conditions: Tables 22-23
Protocol: as §1, §2, §3

[6] = Tables 2-5, concentration necessary to inhibit 50% growth
[7] = Tables 3-5, lower parts (unnatural amino acids)
[8] = Tables 7-9, lower parts (unnatural amino acids)
[9] = Tables 11-13, lower parts (unnatural amino acids)
[10] = Tables 15-17, lower parts (unnatural amino acids)

Compound	HD50 (concentration necessary to lyse 50% of the cells) ([1]; Tables 18-21) [µg/mL]	IC50 against E. coli [2, 6] [µg/mL]	IC50 against S. aureus ([3]; Tables 6-9) [µg/mL]	IC50 against S. sanguis ([4]; Tables 10-13) [µg/mL]	IC50 against C. albicans ([5]; Tables 14-17) [µg/mL]	IC50 against E. coli [2, 7] [μg/m]	IC50 against S. aureus [3, 8] [μg/m]	IC50 against S. sanguis [4, 9] [μg/m]	IC50 against C. albicans [5, 10] [μg/m]	further results
C[C@H](O)[C@@H](NC(=O)[C@H](CCCCN)NC(=O)[C@H](Cc1c[nH]c2ccccc12)NC(=O)[C@H](CCCCN)NC(=O)OCC1c2ccccc2-c2ccccc21)C(N)=O [(KFmoc)WKt-NH2] (Fmoc-KWK[dT]-NH2)	435	55 (≈ 70.2 µM)	10 (≈ 12.8 µM)	7 (≈ 8.94 µM)	292 (≈ 373 µM)					
CC(C)[C@@H](NC(=O)[C@H](CCCCN)NC(=O)[C@H](Cc1c[nH]c2ccccc12)NC(=O)[C@H](CCCCN)NC(=O)OCC1c2ccccc2-c2ccccc21)C(N)=O [(KFmoc)WKv-NH2] (Fmoc-KWK[dV]-NH2)	181	54 (≈ 69.1 µM)	9 (≈ 11.5 µM)	10 (≈ 12.8 µM)	187 (≈ 239 µM)					
NCCCC[C@H](NC(=O)OCC1c2ccccc2-c2ccccc21)C(=O)N[C@@H](Cc1c[nH]c2ccccc12)C(=O)N[C@@H](CCCCN)C(=O)N[C@H](Cc1c[nH]c2ccccc12)C(N)=O [(KFmoc)WKw-NH2] (Fmoc-KWK[dW]-NH2)	32	15 (≈ 17.3 µM)	4 (≈ 4.61 µM)	4 (≈ 4.61 µM)	116 (≈ 134 µM)					
NCCCC[C@H](NC(=O)OCC1c2ccccc2-c2ccccc21)C(=O)N[C@@H](Cc1c[nH]c2ccccc12)C(=O)N[C@@H](CCCCN)C(=O)N[C@H](Cc1ccc(O)cc1)C(N)=O [(KFmoc)WKy-NH2] (Fmoc-KWK[dY]-NH2)	368	39 (≈ 46.2 µM)	7 (≈ 8.28 µM)	8 (≈ 9.47 µM)	144 (≈ 170 µM)					
C[C@@H](NC(=O)[C@H](Cc1ccc(O)cc1)NC(=O)[C@H](Cc1c[nH]c2ccccc12)NC(=O)[C@H](CCCCN)NC(=O)OCC1c2ccccc2-c2ccccc21)C(N)=O [(KFmoc)WYa-NH2] (Fmoc-KWY[dA]-NH2)	74	87 (≈ 110 µM)	5 (≈ 6.35 µM)	5 (≈ 6.35 µM)	249 (≈ 316 µM)					
NCCCC[C@H](NC(=O)OCC1c2ccccc2-c2ccccc21)C(=O)N[C@@H](Cc1c[nH]c2ccccc12)C(=O)N[C@@H](Cc1ccc(O)cc1)C(=O)N[C@H](Cc1c[nH]cn1)C(N)=O [(KFmoc)WYh-NH2] (Fmoc-KWY[dH]-NH2)	73	40 (≈ 46.8 µM)	7 (≈ 8.2 µM)	8 (≈ 9.37 µM)	192 (≈ 225 µM)					
NCCCC[C@H](NC(=O)OCC1c2ccccc2-c2ccccc21)C(=O)N[C@@H](Cc1c[nH]c2ccccc12)C(=O)N[C@@H](Cc1ccc(O)cc1)C(=O)N[C@H](CCCCN)C(N)=O [(KFmoc)WYk-NH2] (Fmoc-KWY[dK]-NH2)	62	18 (≈ 21.3 µM)	5 (≈ 5.92 µM)	5 (≈ 5.92 µM)	121 (≈ 143 µM)					
NCCCC[C@H](NC(=O)OCC1c2ccccc2-c2ccccc21)C(=O)N[C@@H](Cc1c[nH]c2ccccc12)C(=O)N[C@@H](Cc1ccc(O)cc1)C(=O)N1CCC[C@@H]1C(N)=O [(KFmoc)WYp-NH2] (Fmoc-KWY[dP]-NH2)	76	84 (≈ 103 µM)	5 (≈ 6.14 µM)	5 (≈ 6.14 µM)	165 (≈ 203 µM)					
N=C(N)NCCC[C@@H](NC(=O)[C@H](Cc1ccc(O)cc1)NC(=O)[C@H](Cc1c[nH]c2ccccc12)NC(=O)[C@H](CCCCN)NC(=O)OCC1c2ccccc2-c2ccccc21)C(N)=O [(KFmoc)WYr-NH2] (Fmoc-KWY[dR]-NH2)	31	16 (≈ 18.3 µM)	4 (≈ 4.58 µM)	4 (≈ 4.58 µM)	109 (≈ 125 µM)					
NCCCC[C@H](NC(=O)OCC1c2ccccc2-c2ccccc21)C(=O)N[C@@H](Cc1c[nH]c2ccccc12)C(=O)N[C@@H](Cc1ccc(O)cc1)C(=O)N[C@H](CO)C(N)=O [(KFmoc)WYs-NH2] (Fmoc-KWY[dS]-NH2)	27	106 (≈ 132 µM)	5 (≈ 6.22 µM)	5 (≈ 6.22 µM)	353 (≈ 439 µM)					
C[C@H](O)[C@@H](NC(=O)[C@H](Cc1ccc(O)cc1)NC(=O)[C@H](Cc1c[nH]c2ccccc12)NC(=O)[C@H](CCCCN)NC(=O)OCC1c2ccccc2-c2ccccc21)C(N)=O [(KFmoc)WYt-NH2] (Fmoc-KWY[dT]-NH2)	37	81 (≈ 99 µM)	9 (≈ 11 µM)	8 (≈ 9.78 µM)	161 (≈ 197 µM)					
CC(C)C[C@@H](NC(=O)[C@@H](Cc1ccccc1)NC(=O)[C@H](Cc1c[nH]c2ccccc12)NC(=O)[C@H](CCCCN)NC(=O)OCC1c2ccccc2-c2ccccc21)C(N)=O [(KFmoc)Wfl-NH2] (Fmoc-KW[dF][dL]-NH2)	197	28 (≈ 34.4 µM)	2 (≈ 2.46 µM)	2 (≈ 2.46 µM)	127 (≈ 156 µM)					
NCCCC[C@H](NC(=O)OCC1c2ccccc2-c2ccccc21)C(=O)N[C@@H](Cc1c[nH]c2ccccc12)C(=O)N[C@H](Cc1ccccc1)C(=O)N1CCC[C@@H]1C(N)=O [(KFmoc)Wfp-NH2] (Fmoc-KW[dF][dP]-NH2)	65	30 (≈ 37.6 µM)	7 (≈ 8.77 µM)	6 (≈ 7.52 µM)	347 (≈ 435 µM)					
N=C(N)NCCC[C@@H](NC(=O)[C@@H](Cc1ccccc1)NC(=O)[C@H](Cc1c[nH]c2ccccc12)NC(=O)[C@H](CCCCN)NC(=O)OCC1c2ccccc2-c2ccccc21)C(N)=O [(KFmoc)Wfr-NH2] (Fmoc-KW[dF][dR]-NH2)	42	15 (≈ 17.5 µM)	2 (≈ 2.33 µM)	2 (≈ 2.33 µM)	42 (≈ 49 µM)					
(KFmoc)WK(dOrn)-NH2	369	69	5	5	196					
(KFmoc)WY(dOrn)-NH2	67					35	5	7	359	
(KFmoc)Wf(Bala)-NH2						70	11	10	170	HD50 (concentration necessary to lyse 50% of the cells) ([1]; Table 20, lower part): 360 μg/m
(KFmoc)Wf(Hyp)-NH2						44	5	8	95	HD50 (concentration necessary to lyse 50% of the cells) ([1]; Table 20, lower part): 37 μg/m
(KFmoc)Wf(KCBZ)-NH2						28	3	4	58	HD50 (concentration necessary to lyse 50% of the cells) ([1]; Table 20, lower part): 52 μg/m
(KFmoc)Wf(aABA)-NH2						21	6	7	72	HD50 (concentration necessary to lyse 50% of the cells) ([1]; Table 20, lower part): 241 μg/m
(KFmoc)Wf(aAIB)-NH2						27	4	4	62	HD50 (concentration necessary to lyse 50% of the cells) ([1]; Table 20, lower part): 383 μg/m
(KFmoc)Wf(dOrn)-NH2						19	4	4	54	HD50 (concentration necessary to lyse 50% of the cells) ([1]; Table 20, lower part): 42 μg/m
(KFmoc)ci(Hyp)-NH2	39					52	8	8	205	
(KFmoc)ci(KCBZ)-NH2	53					15	5	3	78	
(KFmoc)ci(dOrn)-NH2	77					20	4	2	121	
Ac-RRWWCL-NH2 [Ac-RRWWCL-NH2]										% hemolysis at 100 μg/ml ([1]; at 100 μg/ml, Tables 22-23): 5.0%; IC50 (μg/ml) against E. coli [2]: 19 to 22 µg/mL; IC50 (μg/ml) against S. sanguis [4]: 18 to 21 µg/mL; IC50 (μg/ml) against C. albicans [5]: 65 to 95 µg/mL; IC50 (μg/ml) against P. aeruginosa (P. aeruginosa ATCC 27853): 46 to 54 µg/mL
MagaininII-NH2 [reference compound]										IC50 (μg/ml) against E. coli [2]: 72 to 98 µg/mL; IC50 (μg/ml) against S. aureus ([3]; Tables 22-23): 32 to 64 µg/mL; IC50 (μg/ml) against S. sanguis [4]: 143 to 235 µg/mL; IC50 (μg/ml) against C. albicans [5]: 41 to 42 µg/mL; IC50 (μg/ml) against P. aeruginosa (P. aeruginosa ATCC 27853): 150 to 200 µg/mL
